Test results taken from patent US10259847B2, “Beta-hairpin peptidomimetics” (POLYPHOR AG, priority 2014, dated 2019).
Where a SMILES comes first, the peptide text is derived from it. [ ]: non-standard residue; d: D form. Tle = CC(C)(C)[C@H](N)C(=O)O; dDab = NCC[C@@H](N)C(=O)O; Orn = NCCC[C@H](N)C(=O)O; Dab = NCC[C@H](N)C(=O)O; dAze = O=C(O)[C@H]1CCN1; Dap = NC[C@H](N)C(=O)O

Key:
Format in all cases: cell-based
[1] = test system: Acinetobacter baumannii DSM 30008; settings: DSM 30008
Summary of the method: (§1)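 Peptide activity was tested by NCCLS broth microdilution with slight modifications. Bacteria were diluted in cation-adjusted Mueller-Hinton II broth to approximately 10^6 CFU/mL against a 0.5 McFarland standard. They were then exposed to two-fold serial peptide dilutions in broth containing 0.002% final polysorbate 80.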

[2] = test system: Klebsiella pneumoniae ATCC 13883; settings: ATCC 13883
Summary of the method: as §1

[3] = test system: Escherichia coli ATCC 25922; settings: ATCC 25922
Summary of the method: as §1

[4] = test system: human red blood cells (hRBC); assay: Hemolysis of human red blood cells; settings: red cells of human, 1 h, 100
Method: Stock solutions were kept at +4° C., light protected.
Percent hemolysis was calculated as follows: (OD540peptide/OD540H2O)×100%.

Structure (SMILES)	Acinetobacter baumannii DSM 30008 MIC [1]	Klebsiella pneumoniae ATCC 13883 MIC [2]	Escherichia coli ATCC 25922 MIC [3]	Hemolysis at 100 μg/mL [4]
CC[C@H](C)[C@@H]1NC(=O)[C@H](Cc2ccc(O)cc2)NC(=O)[C@H]2CCCN2C(=O)[C@H](CO)NC(=O)[C@@H]2CSSC[C@H](NC1=O)C(=O)N[C@@H](Cc1ccc(O)cc1)C(=O)N[C@@H](CCN)C(=O)N[C@@H](CCCN)C(=O)N[C@H](CCN)C(=O)N[C@@H](CCN)C(=O)N[C@@H](Cc1c[nH]c3ccccc13)C(=O)N[C@@H](CCN)C(=O)N[C@@H](C(C)(C)C)C(=O)N2 [Example 11, cyclo(-Ile-Cys-Tyr-Dab-Orn-^DDab-Dab-Trp-Dab-tBuGly-Cys-Ser-^DPro-Tyr-)] (HELM PEPTIDE1{C.S.[dP].Y.I.C.Y.[Dab].[Orn].[NCC[C@@H](N[*:1])C(=O)[*:2]].[Dab].W.[Dab].[CC(C)(C)[C@H](N[*:1])C(=O)[*:2]]}$PEPTIDE1,PEPTIDE1,1:R3-6:R3|PEPTIDE1,PEPTIDE1,1:R1-14:R2$$$V2.0)	1 µg/mL	0.5 µg/mL	2 µg/mL	1%
CC(C)C[C@@H]1NC(=O)[C@@H]2CCCN2C(=O)[C@H]2CCCN2C(=O)[C@H](CO)NC(=O)[C@@H]2CC(=O)NCC[C@H](NC1=O)C(=O)N[C@@H](Cc1ccc(O)cc1)C(=O)N[C@@H](CCN)C(=O)N[C@@H](CCCN)C(=O)N[C@H](CCN)C(=O)N[C@@H](CCN)C(=O)N[C@@H](Cc1c[nH]c3ccccc13)C(=O)N[C@@H](CCN)C(=O)N[C@@H](C(C)(C)C)C(=O)N2 [Example 37, cyclo(-Leu-Dab-Tyr-Dab-Orn-^DDab-Dab-Trp-Dab-tBuGly-Asp-Ser-^DPro-Pro-)] (HELM PEPTIDE1{L.[Dab].Y.[Dab].[Orn].[NCC[C@@H](N[*:1])C(=O)[*:2]].[Dab].W.[Dab].[CC(C)(C)[C@H](N[*:1])C(=O)[*:2]].D.S.[dP].P}$PEPTIDE1,PEPTIDE1,2:R3-11:R3|PEPTIDE1,PEPTIDE1,1:R1-14:R2$$$V2.0)	0.5 µg/mL	0.5 µg/mL	0.5 µg/mL	2.5%
CC(C)C[C@@H]1NC(=O)[C@@H]2CCCN2C(=O)[C@H]2CCCN2C(=O)[C@H](CO)NC(=O)[C@@H]2CCNC(=O)C[C@H](NC1=O)C(=O)N[C@@H](Cc1ccc(O)cc1)C(=O)N[C@@H](CCN)C(=O)N[C@@H](CCCN)C(=O)N[C@@H](CCN)C(=O)N[C@@H](CCN)C(=O)N[C@@H](Cc1c[nH]c3ccccc13)C(=O)N[C@@H](CCN)C(=O)N[C@@H](C(C)(C)C)C(=O)N2 [Example 23, cyclo(-Leu-Asp-Tyr-Dab-Orn-Dab-Dab-Trp-Dab-tBuGly-Dab-Ser-^DPro-Pro-)] (HELM PEPTIDE1{L.D.Y.[Dab].[Orn].[Dab].[Dab].W.[Dab].[CC(C)(C)[C@H](N[*:1])C(=O)[*:2]].[Dab].S.[dP].P}$PEPTIDE1,PEPTIDE1,2:R3-11:R3|PEPTIDE1,PEPTIDE1,1:R1-14:R2$$$V2.0)	1 µg/mL	0.5 µg/mL	1 µg/mL	0%
CC(C)C[C@@H]1NC(=O)[C@@H]2CCCN2C(=O)[C@H]2CCCN2C(=O)[C@H](CO)NC(=O)[C@@H]2CC(=O)NCC[C@H](NC1=O)C(=O)N[C@@H](Cc1ccc(O)cc1)C(=O)N[C@@H](CCN)C(=O)N[C@@H](CCCN)C(=O)N[C@@H](CCN)C(=O)N[C@@H](CCN)C(=O)N[C@@H](Cc1c[nH]c3ccccc13)C(=O)N[C@@H](CCN)C(=O)N[C@@H](C(C)(C)C)C(=O)N2 [Example 32, cyclo(-Leu-Dab-Tyr-Dab-Orn-Dab-Dab-Trp-Dab-tBuGly-Asp-Ser-^DPro-Pro-)] (HELM PEPTIDE1{L.[Dab].Y.[Dab].[Orn].[Dab].[Dab].W.[Dab].[CC(C)(C)[C@H](N[*:1])C(=O)[*:2]].D.S.[dP].P}$PEPTIDE1,PEPTIDE1,2:R3-11:R3|PEPTIDE1,PEPTIDE1,1:R1-14:R2$$$V2.0)	0.5 µg/mL	0.5 µg/mL	0.5 µg/mL	1%
C[C@@H]1NC(=O)[C@H](C(C)(C)C)NC(=O)[C@H](CCN)NC(=O)[C@H](Cc2c[nH]c3ccccc23)NC(=O)[C@H](CCN)NC(=O)[C@@H](CCN)NC(=O)[C@H](CCCN)NC(=O)[C@H](CCN)NC(=O)[C@H](Cc2ccc(O)cc2)NC(=O)[C@H](CN)NC(=O)[C@H](Cc2ccccc2)NC(=O)[C@H](Cc2ccccc2)NC(=O)[C@H]2CCCN2C(=O)[C@H](CO)NC1=O [Example 43, cyclo(-Phe-Dap-Tyr-Dab-Orn-^DDab-Dab-Trp-Dab-tBuGly-Ala-Ser-^DPro-Phe-)] (cyclo(AS[dP]FF[Dap]Y[Dab][Orn][dDab][Dab]W[Dab][Tle]))	1 µg/mL	0.25 µg/mL	1 µg/mL	1%
CC(C)(C)[C@@H]1NC(=O)[C@H](CCN)NC(=O)[C@H](Cc2c[nH]c3ccccc23)NC(=O)[C@H](CCN)NC(=O)[C@@H](CCN)NC(=O)[C@H](CCCN)NC(=O)[C@H](CCCNC(=N)N)NC(=O)[C@H](Cc2ccc(O)cc2)NC(=O)[C@@H]2CCNC(=O)C[C@H](NC1=O)C(=O)N[C@@H](CO)C(=O)N1CCC[C@@H]1C(=O)N1CCC[C@H]1C(=O)N[C@@H](Cc1ccccc1)C(=O)N2 [Example 13, cyclo(-Phe-Dab-Tyr-Arg-Orn-^DDab-Dab-Trp-Dab-tBuGly-Asp-Ser-^DPro-Pro-)] (HELM PEPTIDE1{F.[Dab].Y.R.[Orn].[NCC[C@@H](N[*:1])C(=O)[*:2]].[Dab].W.[Dab].[CC(C)(C)[C@H](N[*:1])C(=O)[*:2]].D.S.[dP].P}$PEPTIDE1,PEPTIDE1,2:R3-11:R3|PEPTIDE1,PEPTIDE1,1:R1-14:R2$$$V2.0)	1 µg/mL	0.5 µg/mL	0.25 µg/mL	1%
CC(C)C[C@@H]1NC(=O)[C@@H]2CCCN2C(=O)[C@H]2CCCN2C(=O)[C@H](CO)NC(=O)[C@@H]2CCC(=O)NCC[C@H](NC1=O)C(=O)N[C@@H](Cc1ccc(O)cc1)C(=O)N[C@@H](CCN)C(=O)N[C@@H](CCCN)C(=O)N[C@H](CCN)C(=O)N[C@@H](CCN)C(=O)N[C@@H](Cc1c[nH]c3ccccc13)C(=O)N[C@@H](CCN)C(=O)N[C@@H](C(C)(C)C)C(=O)N2 [Example 30, cyclo(-Leu-Dab-Tyr-Dab-Orn-^DDab-Dab-Trp-Dab-tBuGly-Glu-Ser-^DPro-Pro-)] (HELM PEPTIDE1{L.[Dab].Y.[Dab].[Orn].[NCC[C@@H](N[*:1])C(=O)[*:2]].[Dab].W.[Dab].[CC(C)(C)[C@H](N[*:1])C(=O)[*:2]].E.S.[dP].P}$PEPTIDE1,PEPTIDE1,2:R3-11:R3|PEPTIDE1,PEPTIDE1,1:R1-14:R2$$$V2.0)	1 µg/mL	2 µg/mL	1 µg/mL	0.5%
CC(C)[C@@H]1NC(=O)[C@@H]2CCCN2C(=O)[C@H]2CCN2C(=O)[C@H]([C@@H](C)O)NC(=O)[C@H](CO)NC(=O)[C@H](C(C)(C)C)NC(=O)[C@H](CCN)NC(=O)[C@H](Cc2c[nH]c3ccccc23)NC(=O)[C@H](CCN)NC(=O)[C@@H](CCN)NC(=O)[C@H](CN)NC(=O)[C@H](CCN)NC(=O)[C@H](Cc2ccc(O)cc2)NC(=O)[C@H](CN)NC1=O [Example 41, cyclo(-Val-Dap-Tyr-Dab-Dap-^DDab-Dab-Trp-Dab-tBuGly-Ser-Thr-^DAzt-Pro-)] (cyclo([Dab][Dap][dDab][Dab]W[Dab][Tle]ST[dAze]PV[Dap]Y))	1 µg/mL	0.25 µg/mL	0.5 µg/mL	1%
